Assay results taken from ChEMBL document CHEMBL1125494, “A molecular modeling study of the interactions between the antiestrogen drug tamoxifen and several derivatives, and the calcium-binding protein calmodulin” (J Med Chem, 1992).

Assay: Inhibition of calmodulin dependent cAMP phosphodiesterase.

Compound | IC50 [µM]
C/C(=C(\c1ccccc1)c1ccc(OCCN(C)C)cc1)c1ccccc1 | 20
CCC(=C(c1ccc(O)cc1)c1ccc(OCCN(C)C)cc1)c1ccccc1 | 19
CC/C(=C(\c1ccccc1)c1ccc(OCCN(CC)CC)cc1)c1ccccc1 | 10
CC/C(=C(\c1ccccc1)c1ccc(OCCN2CCNCC2)cc1)c1ccccc1 | > 50

Further lines, results first:

IC50 [µM] | Compound
6.75 | CC/C(=C(\c1ccccc1)c1ccc(OCCN(C)C)cc1)c1ccccc1 [TAMOXIFEN]
2.3 | CC/C(=C(\c1ccc(I)cc1)c1ccc(OCCN(C)C)cc1)c1ccccc1
